Measurements published in US11607419B2, “Inhibitors of RAC1 and uses thereof for inducing bronchodilatation” (INSTITUT NATIONAL DE LA SANTE ET DE LA RECHERCHE MEDICALE …, priority 2017, dated 2023).

Columns and labels:
RAC1 [1] = molecular target: T1, RAC1 (Homo sapiens, UniProt P63000)
RAC1 [2] = molecular target: T1, RAC1; conditions: compared with NSC23766
[3] = molecular target: T2, Rac-GTP (Rac1 activity) in NIH3T3 cells (Mus musculus, UniProt P63001); experiment: Rac activation: active Rac immunoprecipitation and immunoblot of Rac-GTP in fibroblasts stimulated by a Rac activator; assay type: cell-based; conditions: pre-incubated 1 h
T2 construct: endogenous in cells; host or cells: NIH3T3
Experimental: (§1) Cell culture, transfection and actin staining. NIH3T3 cells grew up in DMEM (Gibco; Invitrogen) containing 10% foetal bovine serum, 100 units/mL penicillin and 100 μg/mL streptomycin at 37° C. and 5% CO2. The culture medium was changed every 72 hours.
Analysis of Rac1 activity. In NIH3T3 cells lysates, Rac1 activity was evaluated by active Rac immunoprecipitation using anti-Rac-GTP antibody (26903, NewEast Biosciences). The precipitated active Rac was subjected to SDS-PAGE and detected by immunoblot with anti-Rac1 antibody (BD biosciences).

[4] = system: Rac1-dependent ruffle formation in NIH3T3 cells; experiment: Rac activator-induced membrane ruffling (actin staining) in fibroblasts; assay type: cell-based; conditions: fibroblasts, dose-dependent inhibition
Experimental: as §1
After treatments, fibroblasts were fixed with 4% paraformaldehyde in PBS, permeabilized in PBS 0.5% Triton X-100, and incubated with 130 μg/mL of FITC-conjugated phalloidin (Sigma) to visualize F-actin. After staining, images were captured by a fluorescence microscope (Nikon). The actin cytoskeleton organization was analyzed to observe Rac1-dependent ruffle formation.

fibroblast adhesion = experiment: Cell adhesion assay using impedance technology; assay type: cell-based; conditions: fibroblasts, 10 μm
Experimental: Cell adhesion assay using impedance technology. Cells (10000/well) were seeded in a 96 well plate microtiter xCELLigence assay plate (E-Plate) (ACEA Biosciences Inc.) and placed on the Real-time xCELLigence Cell Analyzer (Roche Applied Science) platform at 37° C. to measure the “cell index” every 5 min for a period of 6 hours. The cell index unit is defined as (Rn−Rb)/15. Rn is the cell electrode impedance of the well when it contains cells. Rb is the background impedance of the well with the media alone.

melting point	Compound	also measured
84 °C	COc1ccc(OC)c(NS(=O)(=O)c2ccc(NC(=O)C#C[Si](C)(C)C)cc2)c1	–
–	COc1ccc(NS(=O)(=O)c2ccc(NC(=O)CCSc3ccc(C)cc3)cc2)c(OC)c1 [(1), N-(4-(N-(2,4-dimethoxyphenyl)sulfamoyl)phenyl)-3-(p-tolylthio)propanamide]	IC50 (RAC1 [1]): 30 nM; Relative activity (NSC23766) (RAC1 [2]): >
126 °C	COc1ccc(OC)c(NS(=O)(=O)c2ccc(NC(=O)CCCc3ccc(C)cc3)cc2)c1 [(3), N-(4-(N-(2,5-dimethoxyphenyl)sulfamoyl)phenyl)-4-(p-tolyl) butanamide]	–
126 °C	COc1ccc(OC)c(NS(=O)(=O)c2ccc(NC(=O)CSc3ccc(C)cc3)cc2)c1 [(4)]	–
126 °C	C=CC(=O)Nc1ccc(S(=O)(=O)Nc2cc(OC)ccc2OC)cc1 [(5), N-(4-(N-(2,5-dimethoxyphenyl)sulfamoyl)phenyl)acrylamide]	IC50 (RAC1 [1]): 0.1 nM; Relative activity (NSC23766) (RAC1 [2]): >
145 °C	COc1ccc(OC)c(NS(=O)(=O)c2ccc(NC(=O)CCOc3ccc(C)cc3)cc2)c1 [(6), N-(4-(N-(2,5-dimethoxyphenyl)sulfamoyl)phenyl)-3-(p-tolyloxy)propanamide]	IC50 (RAC1 [1]): 1 nM; Relative activity (NSC23766) (RAC1 [2]): >
153 °C	COc1ccc(OC)c(NC(=O)c2ccc(NC(=O)CCSc3ccc(C)cc3)cc2)c1 [(7), N-(2,5-dimethoxyphenyl)-4-(3-(p-tolylthio)propanamido) benzamide]	–
153 °C	COc1ccc(OC)c(NS(=O)(=O)c2ccc(NC(=O)CCCSc3ccc(C)cc3)cc2)c1 [(8)]	–
165 °C	COc1ccc(OC)c(NS(=O)(=O)c2ccc([N+](=O)[O-])cc2)c1 [(9), N-(2,5-dimethoxyphenyl)-4-nitrobenzenesulfonamide]	–
126 °C	COc1ccc(OC)c(NS(=O)(=O)c2ccc(N)cc2)c1 [(10), 4-amino-N-(2,5-dimethoxyphenyl)benzenesulfonamide]	–
170 °C	CCC(=O)Nc1ccc(S(=O)(=O)Nc2cc(OC)ccc2OC)cc1 [(11), N-(4-(N-(2,5-dimethoxyphenyl)sulfamoyl)phenyl) propionamide]	–
220.8 °C	C=CC(=O)Nc1ccc(S(=O)(=O)N(C(=O)C=C)c2cc(OC)ccc2OC)cc1 [(16), N-acryloyl-N′-(4-(N-(2,5-dimethoxyphenyl)sulfamoyl)phenyl) acrylamide]	–
156.5 °C	COc1ccccc1NS(=O)(=O)c1ccc([N+](=O)[O-])cc1 [(17), N-(2-methoxyphenyl)-4-nitrobenzenesulfonamide]	IC50 (RAC1 [1]): 1 nM; Relative activity (NSC23766) (RAC1 [2]): >
–	COc1ccccc1NS(=O)(=O)c1ccc(N)cc1 [(18), 4-amino-N-(2-methoxyphenyl)-benzenesulfonamide]	IC50 (RAC1 [1]): 1 nM; Relative activity (NSC23766) (RAC1 [2]): >
143.5 °C	COc1ccccc1NS(=O)(=O)c1ccc(NC(=O)CCSc2ccc(C)cc2)cc1 [(19), N-(4-(N-(2-methoxyphenyl)sulfamoyl)phenyl)-3-(p-tolylthio) propanamide]	IC50 (RAC1 [1]): 1 nM; Relative activity (NSC23766) (RAC1 [2]): >
169.3 °C	COc1ccccc1NS(=O)(=O)c1ccc(NC(=O)CSc2ccc(C)cc2)cc1 [(20), N-(4-(N-(2-methoxyphenyl)sulfamoyl)phenyl)-2-(p-tolylthio) acetamide]	IC50 (RAC1 [1]): 1 nM; Relative activity (NSC23766) (RAC1 [2]): >
119.4 °C	COc1cccc(NS(=O)(=O)c2ccc([N+](=O)[O-])cc2)c1 [(21), N-(3-methoxyphenyl)-4-nitrobenzenesulfonamide]	–
–	COc1cccc(NS(=O)(=O)c2ccc(N)cc2)c1 [(22)]	IC50 (RAC1 [1]): 1 nM; Relative activity (NSC23766) (RAC1 [2]): >
156.8 °C	COc1cccc(NS(=O)(=O)c2ccc(NC(=O)CCSc3ccc(C)cc3)cc2)c1 [(23), N-(4-(N-(3-methoxyphenyl)sulfamoyl)phenyl)-3-(p-tolylthio) propanamide]	–
148.1 °C	COc1ccc(OC)c(NS(=O)(=O)c2ccc(NC(=O)CC[S+]([O-])c3ccc(C)cc3)cc2)c1 (stereo not drawn) [(24), N-(4-(N-(2,5-dimethoxyphenyl)sulfamoyl)phenyl)-3-(p-tolylsulfinyl)propanamide]	–
180.3 °C	COc1ccc(OC)c(NS(=O)(=O)c2ccc(NC(=O)CCS(=O)(=O)c3ccc(C)cc3)cc2)c1 [(25), N-(4-(N-(2,5-dimethoxyphenyl)sulfamoyl)phenyl)-3-tosyl-propanamide]	–
48 °C	COc1ccc(OC)c(N(C)S(=O)(=O)c2ccc(NC(=O)CCSc3ccc(C)cc3)cc2)c1 [(26), N-(4-(N-(2,5-dimethoxyphenyl)-N-methylsulfamoyl)phenyl)-3-(p-tolylthio)propanamide]	–
200 °C	C#CC(=O)Nc1ccc(S(=O)(=O)Nc2cc(OC)ccc2OC)cc1 [(27), N-(4-(N-(2,5-dimethoxyphenyl)sulfamoyl)phenyl) propiolamide]	–
162 °C	Cc1ccc(SCCC(=O)Nc2ccc(S(=O)(=O)Nc3ccccc3F)cc2)cc1 [(30), N-(4-(N-(2-fluorophenyl)sulfamoyl)phenyl)-3-(p-tolylthio) propanamide]	–
190 °C	COc1ccc(OC)c(NS(=O)(=O)c2ccc(NC(=O)CCl)cc2)c1 [(31), 2-chloro-N-(4-(N-(2,5-dimethoxyphenyl)sulfamoyl)phenyl) acetamide]	–
161 °C	COc1ccc(NS(=O)(=O)c2ccc([N+](=O)[O-])cc2)c(OC)c1 [Example 1, N-(2,4-dimethoxyphenyl)-4-nitrobenzenesulfonamide]	–
166 °C	O=[N+]([O-])c1ccc(S(=O)(=O)Nc2ccccc2F)cc1 [Example 5]	–
115 °C	COc1ccc(NS(=O)(=O)c2ccc(N)cc2)c(OC)c1 [Example 6, 4-amino-N-(2,4-dimethoxyphenyl)benzenesulfonamide]	–
190 °C	Nc1ccc(S(=O)(=O)Nc2ccccc2F)cc1 [Example 10]	–
–	CCN(CC)CCCC(C)Nc1nc(C)cc(Nc2ccc3nc(C)cc(N)c3c2)n1 (stereo not drawn) [NSC23766, reference compound]	Rac activation (Rac-GTP level) by a Rac activator [3]: prevented; IC50 [4]: 2600 nM; adhesion rate of the cells (fibroblast adhesion): slow down
